Measurements reported in the supplement of paper PMC11208160.

Test: recombinant barcode read abundance after kanamycin selection (control-corrected) (log10(CPM+1)); higher = more efficient recombination; sequences stand for … in AGTGCAGAGAAAATCGGCCAGTTTTCTCTGCCTGCAGTCCGCATGCCGT…AGATTTATGCAGCGGACTGCCTTTCTCCCAAAGTGATAAACCGGACAGTATCATGGACCGGTTTTCCCGGTAATCCGTATTTGCAAGGTTGGTTTCACT; site = the 11-nt target
Summary of the method: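 Pooled E. coli screen pairing targets with IS621 bridge RNA target-binding loops. Each oligo (promoter, target, barcode, J23119-driven first 104 bridge RNA bases) was Gibson-cloned into a vector with the remaining 73 bp and T7-inducible recombinase, then co-electroporated with a donor plasmid. Two replicates each were plated on chloramphenicol/ampicillin LB agar (control) or chloramphenicol/ampicillin/kanamycin with 0.1 mM IPTG. Recombination efficiency is recombinant-junction barcode counts as CPM, averaged, control-corrected, reported as log10(CPM+1).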
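Further: IS621 recombinase and bridge RNA in Escherichia coli cells.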

“CTTACAGCTTGGGTTCTAACCTGTTGCCT (site CTTACGGCTAG)” and “CTTACAGCTTGGGTTCTAACCTGTTGCCT (site CTTACTGCTAG)” are within 0.2 log units of each other in “recombinant barcode read abundance (log10)” value: 0.0141 for the first, 0.147 for the second.

Compared with “CTTAGGACTTGGGTTCTAACCTGTTGCCA (site CTTAGGACTAG)”, “CTTAGGACTTGGGTTCTAACCTGTTGCCA (site CTTAGGACTCG)” is lower in “recombinant barcode read abundance (log10)” value: 0.257 for the first, 0.0285 for the second.

“CTTAGGACTTGGGTTCTAACCTGTTGCCA (site CTTAGGACTGG)” and “CTTAGGACTTGGGTTCTAACCTGTTGCCA (site CTTAGGACTTG)” are within 0.2 log units of each other in “recombinant barcode read abundance (log10)” value: 0.0906 for the first, 0.265 for the second.

First: CTTAGGACTTGGGTTCTAACCTGTTGCCG (site CTTAGGACTAG)
Second: CTTAGGACTTGGGTTCTAACCTGTTGCCG (site CTTAGGACTCG)
The “recombinant barcode read abundance (log10)” value of the first is lower: 0.235 for the first, 0.577 for the second.

“CTTAGGACTTGGGTTCTAACCTGTTGCCG (site CTTAGGACTGG)” and “CTTAGGACTTGGGTTCTAACCTGTTGCCG (site CTTAGGACTTG)” are within 0.2 log units of each other in “recombinant barcode read abundance (log10)” value: 0.155 for the first, 0.199 for the second.

“CTTAGTACTTGGGTTCTAACCTGTTGCAT (site CTTAGTACTAT)” and “CTTAGTACTTGGGTTCTAACCTGTTGCAT (site GACGTGCCTCG)” are within 0.2 log units of each other in “recombinant barcode read abundance (log10)” value: 0.246 for the first, 0.432 for the second.

“CTTCAATCTTGGGTTCTAACCTGTTGCCT (site CTTAAATCTAG)” and “CTTCAATCTTGGGTTCTAACCTGTTGCCT (site CTTCAATCTAG)” are within 0.2 log units of each other in “recombinant barcode read abundance (log10)” value: 0.146 for the first, 0.267 for the second.

Compared with “CTTCAATCTTGGGTTCTAACCTGTTGCCT (site CTTGAATCTAG)”, “CTTCAATCTTGGGTTCTAACCTGTTGCCT (site CTTTAATCTAG)” is lower in “recombinant barcode read abundance (log10)” value: 0.35 for the first, 0.0762 for the second.

Going from “CTTCACCCTTGGGTTCTAACCTGTTGCCT (site CTTCAACCTAG)” to “CTTCACCCTTGGGTTCTAACCTGTTGCCT (site CTTCACCCTAG)”, the “recombinant barcode read abundance (log10)” value rises from 0.134 to 1.76.

“CTTCACCCTTGGGTTCTAACCTGTTGCCT (site CTTCAGCCTAG)” and “CTTCACCCTTGGGTTCTAACCTGTTGCCT (site CTTCATCCTAG)” are within 0.2 log units of each other in “recombinant barcode read abundance (log10)” value: 0.117 for the first, 0.00728 for the second.

Compared with “CTTCGAGCTTGGGTTCTAACCTGTTGCTG (site CTTCGAGCTCA)”, “CTTCGAGCTTGGGTTCTAACCTGTTGCTG (site CTTCGAGCTCC)” is lower in “recombinant barcode read abundance (log10)” value: 1.52 for the first, 0.193 for the second.

“CTTCGAGCTTGGGTTCTAACCTGTTGCTG (site CTTCGAGCTCG)” and “CTTCGAGCTTGGGTTCTAACCTGTTGCTG (site CTTCGAGCTCT)” are within 0.2 log units of each other in “recombinant barcode read abundance (log10)” value: 0.184 for the first, 0.294 for the second.

“CTTCGCACTTGGGTTCTAACCTGTTGCCT (site CATCGCACTAG)” and “CTTCGCACTTGGGTTCTAACCTGTTGCCT (site CCTCGCACTAG)” are within 0.2 log units of each other in “recombinant barcode read abundance (log10)” value: 0.0381 for the first, 0.0814 for the second.

“CTTCGCACTTGGGTTCTAACCTGTTGCCT (site CGTCGCACTAG)” and “CTTCGCACTTGGGTTCTAACCTGTTGCCT (site CTTCGCACTAG)” are within 0.2 log units of each other in “recombinant barcode read abundance (log10)” value: 0.0111 for the first, 0.0708 for the second.

First: CTTCGGGCTTGGGTTCTAACCTGTTGCAT (site CTTCGGGCTAT)
Second: CTTCGGGCTTGGGTTCTAACCTGTTGCAT (site CTTTGAGCTAT)
The “recombinant barcode read abundance (log10)” value of the first is higher: 1.26 for the first, 0.242 for the second.

“CTTGCATCTTGGGTTCTAACCTGTTGCCT (site CTTGCATCTAG)” and “CTTGCATCTTGGGTTCTAACCTGTTGCCT (site GGGCACACTGT)” are within 0.2 log units of each other in “recombinant barcode read abundance (log10)” value: 0.383 for the first, 0.293 for the second.

“CTTGGAACTTGGGTTCTAACCTGTTGCCT (site CTTGGAACTAG)” and “CTTGGAACTTGGGTTCTAACCTGTTGCCT (site CTTGGACCTAG)” are within 0.2 log units of each other in “recombinant barcode read abundance (log10)” value: 0.224 for the first, 0.242 for the second.

Compared with “CTTGGAACTTGGGTTCTAACCTGTTGCCT (site CTTGGAGCTAG)”, “CTTGGAACTTGGGTTCTAACCTGTTGCCT (site CTTGGATCTAG)” is higher in “recombinant barcode read abundance (log10)” value: 0 for the first, 0.228 for the second.
